In the supplement of paper PMC11061612:

Legend:
Experiment in all cases: combination Emax (second highest fraction inhibited in the dose matrix, 72 h); higher = more inhibition; extreme values may be limits of the assay
[1] = system: BC-1 (B-Cell Non-Hodgkin's Lymphoma)
Summary of the method: (§1)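 After 24 hours at 37°C and 5% CO2 in 1536-well plates, cells in DMEM/F12 or RPMI plus 10% FBS received two-drug dose matrices for 72 hours. Viability came from CellTiter-Glo 2.0 luminescence and was scaled as inhibition, anchored at 0 by vehicle wells and at 1 by blank wells. Combination Emax is taken as the second-highest inhibition in the matrix, and Bliss excess as the observed combination effect less EA + EB − EA·EB, with EA and EB the single-agent effects.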

A375 (Melanoma) = system: A375 (Melanoma)
Summary of the method: as §1

DK-MG (Glioblastoma) = system: DK-MG (Glioblastoma)
Summary of the method: as §1

[2] = system: OCI-M1 (Acute Myeloid Leukemia)
Summary of the method: as §1

[3] = system: KNS-62 (Squamous Cell Lung Carcinoma)
Summary of the method: as §1

[4] = system: SBC-5 (Small Cell Lung Carcinoma)
Summary of the method: as §1

[5] = system: NCI-H1435 (Non-Small Cell Lung Carcinoma)
Summary of the method: as §1

C32 (Melanoma) = system: C32 (Melanoma)
Summary of the method: as §1

[6] = system: MRK-nu-1 (Breast Carcinoma)
Summary of the method: as §1

[7] = system: L-363 (Plasma Cell Myeloma)
Summary of the method: as §1

[8] = system: NCI-H2009 (Lung Adenocarcinoma)
Summary of the method: as §1

[9] = system: NCI-H1048 (Small Cell Lung Carcinoma)
Summary of the method: as §1

[10] = system: IGROV-1 (Ovarian Carcinoma)
Summary of the method: as §1

GCIY (Gastric Carcinoma) = system: GCIY (Gastric Carcinoma)
Summary of the method: as §1

[11] = system: Daudi (Burkitt's Lymphoma)
Summary of the method: as §1

[12] = system: TOV-21G (Ovarian Carcinoma)
Summary of the method: as §1

[13] = system: GRANTA-519 (B-Cell Non-Hodgkin's Lymphoma)
Summary of the method: as §1

[14] = system: NCI-H1648 (Lung Adenocarcinoma)
Summary of the method: as §1

NCI-H2452 (Mesothelioma) = system: NCI-H2452 (Mesothelioma)
Summary of the method: as §1

[15] = system: NCI-H2023 (Non-Small Cell Lung Carcinoma)
Summary of the method: as §1

SMILES	combination Emax [1]	combination Emax (A375 (Melanoma))	combination Emax (DK-MG (Glioblastoma))	combination Emax [2]	combination Emax [3]	combination Emax [4]	combination Emax [5]	combination Emax (C32 (Melanoma))	combination Emax [6]	combination Emax [7]	combination Emax [8]	combination Emax [9]	combination Emax [10]	combination Emax (GCIY (Gastric Carcinoma))	combination Emax [11]	combination Emax [12]	combination Emax [13]	combination Emax [14]	combination Emax (NCI-H2452 (Mesothelioma))	combination Emax [15]
CCN(CCO)CCCOc1ccc2c(Nc3cc(CC(=O)Nc4cccc(F)c4)[nH]n3)ncnc2c1 [AZD2811] + C[C@@H]1COCCN1C2=NC(=NC(=C2)C3(CC3)[S@](=N)(=O)C)C4=C5C=CNC5=NC=C4 [AZD6738] (first compound max 1 µM, 7x7, partner max 10 µM)	0.921	0.625	0.308	0.969	0.417	0.754	0.17	0.613	0.732	0.807	0.431	0.804	0.646	0.851	0.851	0.56	0.782	0.633	0.431	0.818
CCN(CCO)CCCOc1ccc2c(Nc3cc(CC(=O)Nc4cccc(F)c4)[nH]n3)ncnc2c1 [AZD2811] + O=C(c1cc(Cc2n[nH]c(=O)c3ccccc23)ccc1F)N1CCN(C(=O)C2CC2)CC1 [Olaparib] (first compound max 1 µM, 7x7, partner max 10 µM)	0.669	0.408	0.258	0.268	0.145	0.392	0.196	0.232	0.491	0.184	0.343	0.698	0.303	0.427	0.48	0.288	0.452	0.233	0.423	0.415
CN(CCO)CC[C@H](CSc1ccccc1)Nc1ccc(S(=O)(=O)NC(=O)c2ccc(N3CCC([C@@H](O)c4ccccc4-c4ccc(Cl)cc4)CC3)cc2)cc1S(=O)(=O)C(F)(F)F [AZD4320] + C=CCn1c(=O)c2cnc(Nc3ccc(N4CCN(C)CC4)cc3)nc2n1-c1cccc(C(C)(C)O)n1 [AZD1775] (first compound max 1 µM, partner max 1 µM)	0.999	0.749	0.283	1	0.363	0.406	0.801	0.639	0.174	1	0.764	1	0.894	0.708	0.336	0.721	1	0.707	0.737	0.623
CN(CCO)CC[C@H](CSc1ccccc1)Nc1ccc(S(=O)(=O)NC(=O)c2ccc(N3CCC([C@@H](O)c4ccccc4-c4ccc(Cl)cc4)CC3)cc2)cc1S(=O)(=O)C(F)(F)F [AZD4320] + CN(C)CCCOc1ccc(-c2ccc3ncc4c(c3c2)n(C2CCOCC2)c(=O)n4C)cn1 [AZD0156] (first compound max 1 µM, 7x7, partner max 1 µM)	0.17	0.129	0.192	0.988	0.125	0.102	0.651	0.284	0.164	0.263	0.0839	0.622	0.611	0.554	0.119	0.209	0.934	0.55	0.246	0.22
CN(CCO)CC[C@H](CSc1ccccc1)Nc1ccc(S(=O)(=O)NC(=O)c2ccc(N3CCC([C@@H](O)c4ccccc4-c4ccc(Cl)cc4)CC3)cc2)cc1S(=O)(=O)C(F)(F)F [AZD4320] + Cn1cnc2c(F)c(Nc3ccc(Br)cc3Cl)c(C(=O)NOCCO)cc21 [Selumetinib] (first compound max 1 µM, 7x7, partner max 3 µM)	0.443	0.749	0.336	1	0.399	0.245	0.819	0.975	0.562	0.212	0.606	0.992	0.612	0.658	0.65	0.503	1	0.83	0.346	0.268
COc1nnc2ccc(N3CCC(c4ccc(OCCN5CCN(C)C(=O)[C@H]5C)cc4)CC3)nn12 [AZD5153] + C=CCn1c(=O)c2cnc(Nc3ccc(N4CCN(C)CC4)cc3)nc2n1-c1cccc(C(C)(C)O)n1 [AZD1775] (first compound max 1 µM, partner max 1 µM)	0.979	0.637	0.689	0.999	0.542	0.846	0.24	0.354	0.309	0.935	0.703	0.787	0.838	0.605	0.753	0.891	0.874	0.737	0.605	0.501
COc1nnc2ccc(N3CCC(c4ccc(OCCN5CCN(C)C(=O)[C@H]5C)cc4)CC3)nn12 [AZD5153] + CC1(C)CCC(CN2CCN(c3ccc(C(=O)NS(=O)(=O)c4ccc(NCC5CCOCC5)c([N+](=O)[O-])c4)c(Oc4cnc5[nH]ccc5c4)c3)CC2)=C(c2ccc(Cl)cc2)C1 [Venetoclax] (first compound max 1 µM, 7x7, partner max 1 µM)	0.935	0.44	0.539	1	0.519	0.518	0.169	0.261	0.468	0.528	0.373	0.492	0.669	0.505	0.58	0.623	0.69	0.68	0.411	0.378
COc1nnc2ccc(N3CCC(c4ccc(OCCN5CCN(C)C(=O)[C@H]5C)cc4)CC3)nn12 [AZD5153] + CCN(CCO)CCCOc1ccc2c(Nc3cc(CC(=O)Nc4cccc(F)c4)[nH]n3)ncnc2c1 [AZD2811] (first compound max 1 µM, 7x7, partner max 1 µM)	0.943	0.562	0.614	1	0.596	0.718	0.339	0.38	0.561	0.589	0.382	0.514	0.618	0.63	0.677	0.749	0.56	0.669	0.433	0.422
COc1nnc2ccc(N3CCC(c4ccc(OCCN5CCN(C)C(=O)[C@H]5C)cc4)CC3)nn12 [AZD5153] + C[C@@H]1COCCN1C2=NC(=NC(=C2)C3(CC3)[S@](=N)(=O)C)C4=C5C=CNC5=NC=C4 [AZD6738] (first compound max 1 µM, 7x7, partner max 10 µM)	0.989	0.774	0.624	1	0.625	0.83	0.3	0.606	0.814	0.849	0.645	0.678	0.843	0.794	0.843	0.891	0.906	0.821	0.574	0.7
COc1nnc2ccc(N3CCC(c4ccc(OCCN5CCN(C)C(=O)[C@H]5C)cc4)CC3)nn12 [AZD5153] + Cc1c2c(nn1C)CSCc1cc(n(C)n1)CSc1cc(c3ccccc3c1)OCCCc1c(C(=O)O)n(C)c3c-2c(Cl)ccc13 [AZD5991] (first compound max 1 µM, 7x7, partner max 1 µM)	1	0.606	0.633	1	0.503	0.988	0.296	0.947	1	0.994	0.379	0.627	0.889	0.538	0.916	0.744	0.314	0.818	0.53	0.47
COc1nnc2ccc(N3CCC(c4ccc(OCCN5CCN(C)C(=O)[C@H]5C)cc4)CC3)nn12 [AZD5153] + Cn1cnc2c(F)c(Nc3ccc(Br)cc3Cl)c(C(=O)NOCCO)cc21 [Selumetinib] (first compound max 1 µM, 7x7, partner max 10 µM)	0.945	0.868	0.652	1	0.647	0.662	0.233	1	0.306	0.709	0.716	0.449	0.736	0.598	0.527	0.775	0.206	0.88	0.446	0.316
Cc1c2c(nn1C)CSCc1cc(n(C)n1)CSc1cc(c3ccccc3c1)OCCCc1c(C(=O)O)n(C)c3c-2c(Cl)ccc13 [AZD5991] + C1CN(CCC1(C(=O)N[C@@H](CCO)C2=CC=C(C=C2)Cl)N)C3=NC=NC4=C3C=CN4 [Capivasertib] (first compound max 1 µM, 7x7, partner max 3 µM)	1	0.2	0.86	0.115	0.31	0.471	0.179	0.266	1	1	0.158	1	0.767	0.36	0.348	0.634	0.0859	0.906	0.253	0.299
